Laboratory results from PubChem BioAssay (NCI).
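How tested: cells in 96-well plates exposed to compound for 48 hours at five concentrations. TGI: concentration producing complete growth inhibition.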

Key:
Assay in all cases: growth of human tumour cells (NCI), 48 h
DU-145 prostate = tested on: DU-145 prostate
A549 NSCLC = tested on: A549 NSCLC
OVCAR-5 ovarian = tested on: OVCAR-5 ovarian
U251 CNS = tested on: U251 CNS
TK-10 renal = tested on: TK-10 renal
HCC-2998 colon = tested on: HCC-2998 colon
NCI-H522 lung = tested on: NCI-H522 lung
NCI-H460 lung = tested on: NCI-H460 lung

Compound: O=C(O)c1cc2c(cc1S(=O)(=O)O)C1C(C3C2C2(Cl)C(Cl)=C(Cl)C3(Cl)C2(Cl)Cl)C2(Cl)C(Cl)=C(Cl)C1(Cl)C2(Cl)Cl (centres undefined)
- TGI (DU-145 prostate): > 100 µM
- TGI (A549 NSCLC): > 100 µM
- TGI (OVCAR-5 ovarian): 70 µM
- TGI (U251 CNS): > 100 µM
- TGI (TK-10 renal): > 100 µM
- TGI (HCC-2998 colon): 51.2 µM
- TGI (NCI-H522 lung): 46.8 µM
- TGI (NCI-H460 lung): > 100 µM

Compound: CCOC(=O)NNC1(SC)NC(=O)c2c(cc(Cl)oc2=O)O1 (centres undefined)
- TGI (DU-145 prostate): 19.7 µM
- TGI (A549 NSCLC): 21.1 µM
- TGI (OVCAR-5 ovarian): 25.2 µM
- TGI (U251 CNS): 25.5 µM
- TGI (TK-10 renal): 10.1 µM
- TGI (HCC-2998 colon): 16.1 µM
- TGI (NCI-H522 lung): 6.26 µM
- TGI (NCI-H460 lung): 23.7 µM

Compound: C/C=C/OC1C(C2COC(C)(C)O2)OC2OC(C)(C)OC21 (centres undefined)
- TGI (DU-145 prostate): > 100 µM
- TGI (A549 NSCLC): > 100 µM
- TGI (OVCAR-5 ovarian): > 100 µM
- TGI (U251 CNS): > 100 µM
- TGI (TK-10 renal): > 100 µM
- TGI (HCC-2998 colon): > 100 µM
- TGI (NCI-H522 lung): > 100 µM
- TGI (NCI-H460 lung): > 100 µM

Compound: C=C(Br)C(Cl)(CBr)CCC(Br)C(C)(C)Cl (centres undefined)
- TGI (DU-145 prostate): > 10 µM
- TGI (A549 NSCLC): > 10 µM
- TGI (OVCAR-5 ovarian): > 10 µM
- TGI (U251 CNS): > 10 µM
- TGI (TK-10 renal): > 10 µM
- TGI (HCC-2998 colon): > 10 µM
- TGI (NCI-H522 lung): > 10 µM

Compound: C=CC1(CBr)CCC(C(C)(C)Br)O1 (centres undefined)
- TGI (DU-145 prostate): 25.7 µM
- TGI (A549 NSCLC): 33.9 µM
- TGI (OVCAR-5 ovarian): 27.9 µM
- TGI (U251 CNS): 15.9 µM
- TGI (TK-10 renal): 28.5 µM
- TGI (HCC-2998 colon): 30.5 µM
- TGI (NCI-H522 lung): 7.14 µM
- TGI (NCI-H460 lung): 27.7 µM

Compound: C=C1CC(CNc2cc(Cl)nc(N)n2)C1
- TGI (DU-145 prostate): > 100 µM
- TGI (A549 NSCLC): > 100 µM
- TGI (OVCAR-5 ovarian): > 100 µM
- TGI (U251 CNS): > 100 µM
- TGI (TK-10 renal): > 100 µM
- TGI (HCC-2998 colon): > 100 µM
- TGI (NCI-H522 lung): > 100 µM
- TGI (NCI-H460 lung): > 100 µM

Compound: CC1(C)SC2C(NC(=O)Cc3ccccc3)C(=O)N2C1C(=O)O (centres undefined)
- TGI (DU-145 prostate): > 100 µM
- TGI (A549 NSCLC): > 100 µM
- TGI (OVCAR-5 ovarian): > 100 µM
- TGI (U251 CNS): > 100 µM
- TGI (TK-10 renal): > 100 µM
- TGI (NCI-H522 lung): > 100 µM
- TGI (NCI-H460 lung): > 100 µM

Compound: COc1ncc(C#CC(=O)c2ccccc2OC)c(OC)n1
- TGI (DU-145 prostate): 12.3 µM
- TGI (A549 NSCLC): 19 µM
- TGI (OVCAR-5 ovarian): 8.23 µM
- TGI (U251 CNS): 8.33 µM
- TGI (TK-10 renal): 2.62 µM
- TGI (HCC-2998 colon): 13 µM
- TGI (NCI-H522 lung): 2.21 µM
- TGI (NCI-H460 lung): 15.7 µM

Compound: OCC1CCCCN1Cc1nc2ccc(Cl)cc2[nH]1 (centres undefined)
- TGI (DU-145 prostate): > 100 µM
- TGI (A549 NSCLC): > 100 µM
- TGI (OVCAR-5 ovarian): > 100 µM
- TGI (U251 CNS): > 100 µM
- TGI (TK-10 renal): > 100 µM
- TGI (HCC-2998 colon): > 100 µM
- TGI (NCI-H522 lung): > 100 µM
- TGI (NCI-H460 lung): > 100 µM

Compound: COc1cc(/C=C2\CCc3cc(OC)c(OC)cc3C2=O)cc(OC)c1
- TGI (DU-145 prostate): 78.5 µM
- TGI (A549 NSCLC): > 100 µM
- TGI (OVCAR-5 ovarian): 99.3 µM
- TGI (U251 CNS): > 100 µM
- TGI (TK-10 renal): > 100 µM
- TGI (HCC-2998 colon): 15 µM
- TGI (NCI-H522 lung): > 42.3 µM
- TGI (NCI-H460 lung): > 100 µM

Compound: CC1(C)OC[C@@]2([C@@H]3CC[C@@H](C3)C2(C)C)N1O
- TGI (DU-145 prostate): > 100 µM
- TGI (A549 NSCLC): > 100 µM
- TGI (OVCAR-5 ovarian): > 100 µM
- TGI (U251 CNS): > 100 µM
- TGI (TK-10 renal): > 100 µM
- TGI (NCI-H522 lung): > 100 µM
- TGI (NCI-H460 lung): > 100 µM

Compound: N#C[C@](CO)(NC(=O)OCc1ccccc1)C(F)F
- TGI (DU-145 prostate): > 100 µM
- TGI (A549 NSCLC): > 100 µM
- TGI (OVCAR-5 ovarian): > 100 µM
- TGI (U251 CNS): > 100 µM
- TGI (TK-10 renal): > 100 µM
- TGI (HCC-2998 colon): > 100 µM
- TGI (NCI-H522 lung): > 100 µM
- TGI (NCI-H460 lung): > 100 µM

Compound: CC(=O)NC1CCC(NC(=O)OC(C)(C)C)C(NC(=O)OC(C)(C)C)C1 (centres undefined)
- TGI (DU-145 prostate): > 100 µM
- TGI (A549 NSCLC): > 100 µM
- TGI (OVCAR-5 ovarian): > 100 µM
- TGI (U251 CNS): > 100 µM
- TGI (TK-10 renal): > 100 µM
- TGI (HCC-2998 colon): > 100 µM
- TGI (NCI-H522 lung): > 100 µM
- TGI (NCI-H460 lung): > 100 µM

Compound: FC(F)(F)C1(C(F)(F)F)OC(Cl)(Cl)C(Cl)(Cl)O1
- TGI (DU-145 prostate): > 10 µM
- TGI (A549 NSCLC): > 10 µM
- TGI (OVCAR-5 ovarian): > 10 µM
- TGI (U251 CNS): > 10 µM
- TGI (TK-10 renal): > 10 µM
- TGI (HCC-2998 colon): > 10 µM
- TGI (NCI-H522 lung): > 10 µM
- TGI (NCI-H460 lung): > 10 µM

Compound: CCOC(=O)NC(N(C)C(C(C)C)P(=O)(OCC)OCC)(C(F)(F)F)C(F)(F)F (centres undefined)
- TGI (DU-145 prostate): > 100 µM
- TGI (A549 NSCLC): > 100 µM
- TGI (OVCAR-5 ovarian): > 100 µM
- TGI (U251 CNS): > 100 µM
- TGI (TK-10 renal): > 100 µM
- TGI (NCI-H522 lung): > 100 µM
- TGI (NCI-H460 lung): > 100 µM

Compound: COC(=O)CC1(O)C(C=C(C)C)C(C(=O)OC)C(=O)C(C(=O)OC)C1C(=O)OC (centres undefined)
- TGI (DU-145 prostate): > 100 µM
- TGI (A549 NSCLC): > 100 µM
- TGI (OVCAR-5 ovarian): > 100 µM
- TGI (U251 CNS): > 100 µM
- TGI (TK-10 renal): > 100 µM
- TGI (HCC-2998 colon): > 100 µM
- TGI (NCI-H522 lung): > 100 µM
- TGI (NCI-H460 lung): > 100 µM

Compound: CCC(/C=C/c1ccccc1)=N\NC(=S)N/N=C(/C=C/c1ccccc1)CC
- TGI (DU-145 prostate): > 100 µM
- TGI (A549 NSCLC): > 100 µM
- TGI (U251 CNS): > 100 µM
- TGI (TK-10 renal): > 100 µM
- TGI (HCC-2998 colon): > 100 µM
- TGI (NCI-H522 lung): > 100 µM
- TGI (NCI-H460 lung): > 100 µM

Compound: CC1CSc2nc3[nH]c(=S)[nH]c3c(=O)n2C1 (centres undefined)
- TGI (DU-145 prostate): > 100 µM
- TGI (A549 NSCLC): > 100 µM
- TGI (OVCAR-5 ovarian): > 100 µM
- TGI (U251 CNS): > 100 µM
- TGI (TK-10 renal): > 100 µM
- TGI (HCC-2998 colon): > 100 µM
- TGI (NCI-H460 lung): > 100 µM

Compound: CCOP(=O)(OCC)C(Cc1ccccc1)N=C(c1ccccc1)c1ccccc1 (centres undefined)
- TGI (DU-145 prostate): 36.3 µM
- TGI (A549 NSCLC): 24.2 µM
- TGI (OVCAR-5 ovarian): 28.1 µM
- TGI (U251 CNS): 28.4 µM
- TGI (TK-10 renal): 23.6 µM
- TGI (NCI-H522 lung): 29.6 µM
- TGI (NCI-H460 lung): 31.9 µM

Compound: O/N=C1\CC2(N3CCOCC3)CCC1(Cc1ccccc1)CC2
- TGI (DU-145 prostate): > 100 µM
- TGI (A549 NSCLC): > 100 µM
- TGI (OVCAR-5 ovarian): > 100 µM
- TGI (U251 CNS): 38.3 µM
- TGI (HCC-2998 colon): > 100 µM
- TGI (NCI-H522 lung): > 100 µM
- TGI (NCI-H460 lung): > 100 µM

Compound: Cn1c2c(c3ccccc31)CC(=O)N1CCCCC1C21OCCO1 (centres undefined)
- TGI (DU-145 prostate): > 100 µM
- TGI (A549 NSCLC): > 100 µM
- TGI (OVCAR-5 ovarian): > 100 µM
- TGI (U251 CNS): > 100 µM
- TGI (TK-10 renal): > 100 µM
- TGI (HCC-2998 colon): > 100 µM
- TGI (NCI-H460 lung): > 100 µM

Compound: c1ccc2c(Cc3c[nH]c4ccccc34)c[nH]c2c1
- TGI (DU-145 prostate): 34.6 µM
- TGI (A549 NSCLC): 57 µM
- TGI (OVCAR-5 ovarian): 29.4 µM
- TGI (U251 CNS): 37.2 µM
- TGI (TK-10 renal): 35.2 µM
- TGI (NCI-H522 lung): 47.9 µM
- TGI (NCI-H460 lung): 40.5 µM

Compound: COC(=O)c1cc(C)ccc1CC(Cc1ccccc1C)C(=O)OC (centres undefined)
- TGI (DU-145 prostate): > 100 µM
- TGI (A549 NSCLC): > 100 µM
- TGI (TK-10 renal): > 100 µM
- TGI (HCC-2998 colon): > 100 µM
- TGI (NCI-H522 lung): 74.1 µM
- TGI (NCI-H460 lung): > 100 µM

Compound: N#Cc1nc(Cc2ccccc2)oc1N
- TGI (DU-145 prostate): > 100 µM
- TGI (A549 NSCLC): > 100 µM
- TGI (OVCAR-5 ovarian): > 100 µM
- TGI (U251 CNS): > 100 µM
- TGI (TK-10 renal): > 100 µM
- TGI (NCI-H460 lung): > 100 µM

Compound: Cc1cc2nc3c(C(O)CO)nn(-c4ccccc4)c3nc2cc1C (centres undefined)
- TGI (DU-145 prostate): 33.1 µM
- TGI (A549 NSCLC): 48.5 µM
- TGI (OVCAR-5 ovarian): 44.9 µM
- TGI (U251 CNS): 38.4 µM
- TGI (TK-10 renal): 35.4 µM
- TGI (NCI-H522 lung): 68 µM
- TGI (NCI-H460 lung): 37.4 µM

Compound: Cc1[nH]n(-c2nc(O)c(C)c(=O)[nH]2)c(=O)c1CCO
- TGI (DU-145 prostate): > 100 µM
- TGI (A549 NSCLC): > 100 µM
- TGI (OVCAR-5 ovarian): > 100 µM
- TGI (U251 CNS): > 100 µM
- TGI (TK-10 renal): > 100 µM
- TGI (NCI-H522 lung): > 100 µM
- TGI (NCI-H460 lung): > 100 µM

Compound: CC1C=C(NCC2(CO)CCC2)NC(N)=N1 (centres undefined)
- TGI (DU-145 prostate): > 100 µM
- TGI (A549 NSCLC): > 100 µM
- TGI (OVCAR-5 ovarian): > 100 µM
- TGI (U251 CNS): > 100 µM
- TGI (HCC-2998 colon): > 100 µM
- TGI (NCI-H522 lung): > 100 µM
- TGI (NCI-H460 lung): > 100 µM
